The numbers were not newly measured in US20060057183A1, “Indwelling stent” (priority 2003, published 2006), which cites them from elsewhere.

The series concerns human vascular cells. Conditions: Mohacsi et al., J Heart Lung Transplant 1997.

Regarding `C=CC[C@@H]1/C=C(\C)C[C@H](C)C[C@H](OC)[C@H]2O[C@@](O)(C(=O)C(=O)N3CCCC[C@H]3C(=O)O[C@H](/C(C)=C/[C@@H]3CC[C@@H](O)[C@H](OC)C3)[C@H](C)[C@@H](O)CC1=O)[C@H](C)C[C@@H]2OC` [tacrolimus (FK506), Tacrolimus], the “antiproliferative effects on human vascular cells” value is recorded as “antiproliferative effects”.
